Patent publication US9849130B2 (KamTek, Inc., priority 2014, dated 2017)
Converted amounts (≈) assume the structure as drawn. Like-named read-outs stand apart in the source and are kept apart here.

Tests used:
[1] = system: Clostridium difficile (CD) strains; assay: microbe, parasite or virus in culture; format: cell-based
C. perfringens MH310 = assay: microbe, parasite or virus in culture; format: cell-based
C. difficile = assay: Minimum bactericidal concentration (MBC) against C. difficile; format: cell-based, Clostridium difficile
CD strains = assay: In vitro activity of CFM + additional antimicrobial agent against CD (MIC alone/combination, FIC, ΣFIC); format: cell-based, Clostridium difficile; settings: CFM + VAN; for MIC: Clostridioides difficile
Escherichia coli strains = assay: MIC by microdilution in Mueller-Hinton broth against Escherichia coli strains; format: cell-based
Enterococcus faecalis = assay: MIC by microdilution in Mueller-Hinton broth against Enterococcus faecalis strains; format: cell-based; settings: Enterococcus faecalis
[2] = system: Staphylococcus aureus strains; assay: MIC by microdilution in Mueller-Hinton broth against Staphylococcus aureus strains; format: cell-based; settings: Staphylococcus aureus
Fusobacterium = assay: MIC by microdilution in Brucella broth against Fusobacterium; format: cell-based, Fusobacterium spp.
Bifidobacterium strains = assay: MIC by microdilution in BHI broth against Bifidobacterium strains; format: cell-based, Bifidobacterium spp.; settings: Bifidobacterium
Lactobacillus strains = assay: MIC against Lactobacillus strains; format: cell-based, Lactobacillus spp.
[3] = system: Lachnospiraceae and related bacterial strains; assay: MIC against Lachnospiraceae and related bacterial strains; format: cell-based, Lachnospiraceae spp.
C. difficile VPI10463 = settings: Clostridioides difficile, C. difficile VPI10463
[4] = Clostridioides difficile, BAA1805
[5] = Test 13, CD strain BAA1805 (BI/NAP1/027)
[6] = Test 16, CD strain BAA1805 (BI/NAP1/027)

## CN[C@H](CC(C)C)C(=O)N[C@H]1C(=O)N[C@@H](CC(N)=O)C(=O)N[C@H]2C(=O)N[C@H]3C(=O)N[C@H](C(=O)N[C@H](C(=O)O)c4cc(O)cc(O)c4-c4cc3ccc4O)[C@H](O)c3ccc(c(Cl)c3)Oc3cc2cc(c3O[C@@H]2O[C@H](CO)[C@@H](O)[C@H](O)[C@H]2O[C@H]2C[C@](C)(N)[C@H](O)[C@H](C)O2)Oc2ccc(cc2Cl)[C@H]1O [VAN, vancomycin]
[1]
  MIC Range: 0.25 to 2.0 µg/mL
[1]; Clostridioides difficile
  MIC50: 0.5 µg/mL (≈ 0.345 µM)
  MIC90: 2 µg/mL (≈ 1.38 µM)
[1]; [4]
  MIC: 1 µg/mL (≈ 0.69 µM)
C. perfringens MH310
  MIC: 0.25 µg/mL (≈ 0.173 µM)
C. perfringens MH310; Clostridium perfringens, MH310
  MIC: 0.5 µg/mL (≈ 0.345 µM)
C. difficile
  MBC/MIC ratio range: 1-4
C. difficile; [4]
  MBC: 2 µg/mL (≈ 1.38 µM)
CD strains; BAA1805, read-out: MIC alone, Test 13, CD strain BAA1805 (BI/NAP1/027)
  MIC: 0.5 µg/mL
CD strains; BAA1805, read-out: MIC alone, Test 16, CD strain BAA1805 (BI/NAP1/027)
  MIC: 0.5 µg/mL
CD strains; read-out: MIC alone, Test 1, CD strain VPI 10463
  MIC: 2 µg/mL
CD strains; read-out: MIC alone, Test 2, CD strain VPI 10463
  MIC: 2 µg/mL
CD strains; read-out: MIC alone, Test 5, CD strain NR32889
  MIC: 2 µg/mL
CD strains; read-out: MIC alone, Test 6, CD strain NR32890
  MIC: 1 µg/mL
CD strains; read-out: MIC alone, Test 7, CD strain NR32885
  MIC: 1 µg/mL
CD strains; read-out: MIC alone, Test 9, CD strain NR32885
  MIC: 1 µg/mL
CD strains; read-out: MIC alone, Test 11, CD strain NR32885
  MIC: 1 µg/mL
CD strains; read-out: MIC alone, Test 18, CD strain NR32888
  MIC: 0.5 µg/mL
CD strains; read-out: MIC alone, Test 20, CD strain NR32888
  MIC: 0.5 µg/mL
CD strains; Test 1, CD strain VPI 10463
  FIC: 0.25
  MIC combination: 0.5 µg/mL
CD strains; Test 2, CD strain VPI 10463
  FIC: 0.25
  MIC combination: 0.5 µg/mL
CD strains; Test 5, CD strain NR32889
  FIC: 1
  MIC combination: 2 µg/mL
CD strains; Test 6, CD strain NR32890
  FIC: 0.5
  MIC combination: 0.5 µg/mL
CD strains; Test 7, CD strain NR32885
  FIC: 0.5
  MIC combination: 0.5 µg/mL
CD strains; Test 9, CD strain NR32885
  FIC: 0.25
  MIC combination: 0.25 µg/mL
CD strains; Test 11, CD strain NR32885
  FIC: 0.25
  MIC combination: 0.25 µg/mL
CD strains; [5]
  FIC: 0.062
  MIC combination: 0.031 µg/mL
CD strains; [6]
  FIC: 0.25
  MIC combination: 0.125 µg/mL
CD strains; Test 18, CD strain NR32888
  FIC: 0.5
  MIC combination: 0.25 µg/mL
CD strains; Test 20, CD strain NR32888
  FIC: 0.5
  MIC combination: 0.25 µg/mL
Escherichia coli strains; E. coli NR 6, Mueller-Hinton broth
  MIC: >32 µg/mL
Escherichia coli strains; E. coli NR 8, Mueller-Hinton broth
  MIC: >32 µg/mL
Escherichia coli strains; E. coli NR 96, Mueller-Hinton broth
  MIC: >32 µg/mL
Escherichia coli strains; E. coli NR 104, Mueller-Hinton broth
  MIC: >32 µg/mL
Escherichia coli strains; E. coli NR 17626, Mueller-Hinton broth
  MIC: >32 µg/mL
Escherichia coli strains; E. coli NR 17627, Mueller-Hinton broth
  MIC: >32 µg/mL
Escherichia coli strains; E. coli NR 17633, Mueller-Hinton broth
  MIC: >32 µg/mL
Escherichia coli strains; E. coli NR 17647, Mueller-Hinton broth
  MIC: >32 µg/mL
Escherichia coli strains; E. coli NR 17650, Mueller-Hinton broth
  MIC: >32 µg/mL
Escherichia coli strains; E. coli NR 17661, Mueller-Hinton broth
  MIC: >32 µg/mL
Escherichia coli strains; Escherichia coli
  MIC: > 32 µg/mL
Escherichia coli strains; Escherichia coli strain NR 6, Mueller-Hinton broth
  MIC: >32 µg/mL
Escherichia coli strains; Escherichia coli strain NR 8, Mueller-Hinton broth
  MIC: >32 µg/mL
Escherichia coli strains; Escherichia coli strain NR 96, Mueller-Hinton broth
  MIC: >32 µg/mL
Escherichia coli strains; Escherichia coli strain NR 17626, Mueller-Hinton broth
  MIC: >32 µg/mL
Escherichia coli strains; Escherichia coli strain NR 17627, Mueller-Hinton broth
  MIC: >32 µg/mL
Escherichia coli strains; Escherichia coli strain NR 17633, Mueller-Hinton broth
  MIC: >32 µg/mL
Escherichia coli strains; Escherichia coli strain NR 17647, Mueller-Hinton broth
  MIC: >32 µg/mL
Escherichia coli strains; Escherichia coli strain NR 17650, Mueller-Hinton broth
  MIC: >32 µg/mL
Escherichia coli strains; Escherichia coli strain NR 17661, Mueller-Hinton broth
  MIC: >32 µg/mL
Enterococcus faecalis; E. faecalis NR 31884
  MIC: 2 µg/mL (≈ 1.38 µM)
Enterococcus faecalis; E. faecalis NR 31885
  MIC: 2 µg/mL (≈ 1.38 µM)
Enterococcus faecalis; E. faecalis NR 31886
  MIC: 1 µg/mL (≈ 0.69 µM)
Enterococcus faecalis; E. faecalis NR 31887
  MIC: 1 µg/mL (≈ 0.69 µM)
Enterococcus faecalis; E. faecalis NR 31888
  MIC: 2 µg/mL (≈ 1.38 µM)
[2]; S. aureus NR 10129
  MIC: 1 µg/mL (≈ 0.69 µM)
[2]; S. aureus NR 10186
  MIC: 1 µg/mL (≈ 0.69 µM)
[2]; S. aureus NR 10187
  MIC: 2 µg/mL (≈ 1.38 µM)
[2]; S. aureus NR 10188
  MIC: 1 µg/mL (≈ 0.69 µM)
[2]; S. aureus NR 10189
  MIC: 2 µg/mL (≈ 1.38 µM)
[2]; S. aureus NR 10191
  MIC: 1 µg/mL (≈ 0.69 µM)
[2]; S. aureus NR 10192
  MIC: 1 µg/mL (≈ 0.69 µM)
[2]; S. aureus NR 10193
  MIC: 2 µg/mL (≈ 1.38 µM)
[2]; S. aureus NR 10194
  MIC: 1 µg/mL (≈ 0.69 µM)
[2]; S. aureus NR 10198
  MIC: 2 µg/mL (≈ 1.38 µM)
[2]; Staphylococcus aureus strain NR 10129
  MIC: 1 µg/mL (≈ 0.69 µM)
[2]; Staphylococcus aureus strain NR 10186
  MIC: 1 µg/mL (≈ 0.69 µM)
[2]; Staphylococcus aureus strain NR 10187
  MIC: 2 µg/mL (≈ 1.38 µM)
[2]; Staphylococcus aureus strain NR 10188
  MIC: 1 µg/mL (≈ 0.69 µM)
[2]; Staphylococcus aureus strain NR 10189
  MIC: 2 µg/mL (≈ 1.38 µM)
[2]; Staphylococcus aureus strain NR 10191
  MIC: 1 µg/mL (≈ 0.69 µM)
[2]; Staphylococcus aureus strain NR 10192
  MIC: 1 µg/mL (≈ 0.69 µM)
[2]; Staphylococcus aureus strain NR 10193
  MIC: 2 µg/mL (≈ 1.38 µM)
[2]; Staphylococcus aureus strain NR 10194
  MIC: 1 µg/mL (≈ 0.69 µM)
[2]; Staphylococcus aureus strain NR 10198
  MIC: 2 µg/mL (≈ 1.38 µM)
Fusobacterium
  MIC: > 32 µg/mL
Fusobacterium; Fusobacterium
  MIC: > 32 µg/mL
Bifidobacterium strains
  MIC: 0.25 µg/mL (≈ 0.173 µM)
Lactobacillus strains
  in vitro activity against Lactobacillus spp. (in words): six strains susceptible and four resistant
[3]
  susceptibility of Lachnospiraceae and related organisms (in words): susceptible
[3]; Clostridiales bacterium
  MIC: 0.25 µg/mL (≈ 0.173 µM)
C. difficile VPI10463; VPI10463, Expt. 1, fecal extract (human feces 20% w/v in BHI)
  MIC: 1 µg/mL (≈ 0.69 µM)
C. difficile VPI10463; VPI10463, Expt. 1, −fecal extract
  MIC: 0.5 µg/mL (≈ 0.345 µM)
C. difficile VPI10463; VPI10463, Expt. 2, +fecal extract (human feces 20% w/v in BHI)
  MIC: 0.5 µg/mL (≈ 0.345 µM)
C. difficile VPI10463; VPI10463, Expt. 2, −fecal extract
  MIC: 0.5 µg/mL (≈ 0.345 µM)
